One assay addresses T1, histamine H1 -receptors (Cavia porcellus, UniProt P31389).
T1 construct: isolated guinea pig ileum (H1); from tissue; host or cells: isolated guinea pig ileum
Put plainly: in vitro histamine H1-antagonism on isolated guinea pig ileum. The note with it: cumulative concentration/action curves (van Rossum), read-out: H1 -antagonism ileum -log KB (converted). An excerpt: (§1) The compounds of formula I according to the invention are distinguished by a novel overall pharmacological activity that has not been described hitherto. […] Suitable for differentiating the two types of action are, for example, in vitro tests on isolated spontaneously beating guinea pig right atrium (H2) and on isolated guinea pig ileum (H1) (Black, J. W.; Duncan, W. A. M.; Durant, G. J., Ganellin, C. R.; Parsons, M. E. (1972), "Definition and Antagonism of Histamine H2 -receptors", Nature 236, 385-390). The concentration/action curves for determining the pharmacological parameters (-log KB) are recorded using a cumulative technique according to van Rossum, J. M. (1963), "Cumulative Dose-Response Curves. II. Technique for the Making of Dose-Response Curves in Isolated Organs and the Evaluation of Drug Parameters", Arch. Int. Pharmacodyn. Ther. 143, 299-307.
(§2) (determined from isolated guinea pig ileum and atrium, […]

A further assay concerns the target T2, histamine H2 -receptors (Cavia porcellus, UniProt P47747).
T2 construct: isolated spontaneously beating guinea pig right atrium (H2); from tissue; host or cells: isolated spontaneously beating guinea pig right atrium
Put plainly: in vitro histamine H2-antagonism on isolated spontaneously beating guinea pig right atrium. The note with it: cumulative concentration/action curves (van Rossum), read-out: H2 -antagonism atrium -log KB (converted).
Text: as §1, §2

Here are results for 10 molecules from patent US5212187A, “Pyridyl alkylamine compounds which are useful against histamine H1 and H2 receptors” (Zyma SA, priority 1991, dated 1993).

Usually Kb stands for the affinity of an antagonist, worked out from how it opposes an agonist.

T1 sequence (P31389 whole entry): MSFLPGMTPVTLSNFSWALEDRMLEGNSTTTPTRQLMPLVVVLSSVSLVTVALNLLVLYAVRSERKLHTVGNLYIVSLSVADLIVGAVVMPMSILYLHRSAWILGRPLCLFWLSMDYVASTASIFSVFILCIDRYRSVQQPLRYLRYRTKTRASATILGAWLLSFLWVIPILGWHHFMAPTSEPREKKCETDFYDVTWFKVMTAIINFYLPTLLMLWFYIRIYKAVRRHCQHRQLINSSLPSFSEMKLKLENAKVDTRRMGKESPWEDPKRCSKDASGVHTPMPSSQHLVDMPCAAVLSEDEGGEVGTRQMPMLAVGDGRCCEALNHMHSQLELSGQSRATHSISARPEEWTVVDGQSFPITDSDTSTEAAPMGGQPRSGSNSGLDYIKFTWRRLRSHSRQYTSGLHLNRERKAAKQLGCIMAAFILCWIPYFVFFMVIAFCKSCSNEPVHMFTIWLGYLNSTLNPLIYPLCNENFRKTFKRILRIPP
T2 sequence (P47747 whole entry): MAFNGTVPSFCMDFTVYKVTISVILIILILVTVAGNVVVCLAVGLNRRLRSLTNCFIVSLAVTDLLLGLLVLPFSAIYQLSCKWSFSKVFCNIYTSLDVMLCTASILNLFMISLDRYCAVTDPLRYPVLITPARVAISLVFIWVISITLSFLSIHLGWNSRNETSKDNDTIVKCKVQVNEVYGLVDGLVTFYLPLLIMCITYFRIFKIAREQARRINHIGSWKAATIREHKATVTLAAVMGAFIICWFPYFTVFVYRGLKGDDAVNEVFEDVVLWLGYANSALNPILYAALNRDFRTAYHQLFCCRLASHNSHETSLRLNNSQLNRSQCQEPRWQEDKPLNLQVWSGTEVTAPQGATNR

As for `COc1ccc(CN(CCN(C)CCCCCCN=C(NC#N)NCCSCc2csc(NC(=N)N)n2)c2ccccn2)cc1` [Example 79, N-cyano-N'-[2-[[(2-guanidino-4-thiazolyl)methyl]thio]ethyl]-N"-[6-[N-[2-[N-(4-methoxybenzyl)-N-(2-pyridyl)amino]ethyl]-N-methylamino]hexyl]-guanidine], the Kb on histamine H1 -receptors was 2.45 nM; on histamine H2 -receptors it was 245 nM.
The like results for `CN(CCCCCCNC(=NC#N)NCCSCc1csc(N=C(N)N)n1)CCN(Cc1ccc(F)cc1)c1ccccn1` [Example 84] were, in that order, 3.63 nM and 302 nM.
As for `CN(CCCCCCCNC(=NCCSCc1csc(NC(=N)N)n1)NC#N)CCN(Cc1ccc(F)cc1)c1ccccn1` [Example 85, N-cyano-N'-[7-[N-[2-[N-(4-fluorobenzyl)-N-(2-pyridyl)amino]ethyl]-N-methylamino]heptyl]-N"-[2-[[(2-guanidino-4-thiazolyl)methyl]thio]ethyl]guanidine], the Kb at histamine H1 -receptors was 7.08 nM; at histamine H2 -receptors, 95.5 nM.
Taken in the same sequence, the figures for `COc1ccc(CN(CCN(C)CCCCNC(=O)NCCSCc2csc(NC(=N)N)n2)c2ccccn2)cc1` [Example 88, N-[2-[[(2-guanidino-4-thiazolyl)methyl]thio]ethyl]-N'-[4-[N-[2-[N-(4-methoxybenzyl)-N-(2-pyridyl)amino]ethyl]-N-methylamino]butyl]urea] were 1.82 nM and 219 nM.
Taken in the same sequence, the figures for `COc1ccc(CN(CCN(C)CCCCCCNC(=O)NCCSCc2csc(NC(=N)N)n2)c2ccccn2)cc1` [Example 89, N-[2-[[(2-guanidino-4-thiazolyl)methyl]thio]ethyl]-N'-[6-[N-[2-[N-(4-methoxybenzyl)-N-(2-pyridyl)amino]ethyl]-N-methylamino]hexyl]urea] were 1.74 nM and 174 nM.
The like results for `CN(CCCCCCNC(=O)NCCSCc1csc(NC(=N)N)n1)CCN(Cc1ccc(F)cc1)c1ccccn1` [Example 94, N-[6-[N-[2-[N-(4-fluorobenzyl)-N-(2-pyridyl)amino]ethyl]-N-methylamino]hexyl]-N'-[2-[[(2-guanidino-4-thiazolyl)methyl]thio]ethyl]urea] were, in that order, 1.58 nM and 141 nM.
Consider `COc1ccc(CN(CCN(C)CCCCCCNC(=C[N+](=O)[O-])NCCSCc2csc(NC(=N)N)n2)c2ccccn2)cc1` [Example 96, N-[2-[[(2-guanidino-4-thiazolyl)methyl]thio]ethyl]-N'-[6-[N-[2-[N-(4-methoxybenzyl)-N-(2-pyridyl)amino]ethyl]-N-methylamino]hexyl]-2-nitro-1,1-ethenediamine], for which the Kb on histamine H1 -receptors is 3.09 nM; at histamine H2 -receptors, 5.25 nM.
Taken in the same sequence, the figures for `CN(C)Cc1ccc(CSCCNC(=O)NCCCCN(C)CCN(Cc2ccc(F)cc2)c2ccccn2)o1` [Example 103, N-[2-[[5-[(dimethylamino)methyl]furfuryl]thio]ethyl]-N'-[4-[N-[2-[N-(4-fluorobenzyl)-N-(2-pyridyl)amino]ethyl]-N-methylamino]butyl]urea] were 24.5 nM and 1200 nM.
As to `CN(C)Cc1ccc(CSCCNC(=C[N+](=O)[O-])NCCCN(C)CCN(Cc2ccc(F)cc2)c2ccccn2)o1` [Example 104, N-[2-[[5-[(dimethylamino)methyl]furfuryl]thio]ethyl]-N'-[3-[N-[2-[N-(4-fluorobenzyl)-N-(2-pyridyl)amino]ethyl]-N-methylamino]propyl]-2-nitro-1,1-ethenediamine], the Kb was 10.7 nM on histamine H1 -receptors and 1350 nM at histamine H2 -receptors.
With `CC(C1=C(CCN(C)CCCCCCNC(=C[N+](=O)[O-])NCCSCc2csc(N=C(N)N)n2)Cc2ccccc21)c1ccccn1` (centres unmarked) [Example 105, N-[2-[[(2-guanidino-4-thiazolyl)methyl]thio]ethyl]-N'-[6-[N-methyl-N-[2-[1-(2-pyridyl)ethyl]inden-2-yl]ethylamino]hexyl]-2-nitro-1,1-ethenediamine], the Kb at histamine H1 -receptors is 36.3 nM; at histamine H2 -receptors it was 28.8 nM.
